Consider two compounds from patent publication US20210330648A1, “Pharmaceutical composition and use thereof” (ALPHALA CO., LTD., priority 2020, published 2021).

Converted amounts (≈) assume the structure as drawn. Where only a bound is given, the exact number is not on record here.

Data set [1] is described as follows: In vitro dissolution testing, USP apparatus Type 2 (paddles). The settings on record: pH 6.8 phosphate buffer with 0.25% SDS, 900 mL, 75 rpm, 37° C. Type of data set: physicochemical. Here is the method:
In vitro dissolution testing was performed using an USP dissolution apparatus Type 2 (paddles) at 75 rpm (250 rpm at infinity) using 900 mL phosphate buffer pH 6.8 with 0.25% w/v SDS as the dissolution medium at 37 0.5° C.

Data set [2] in a line: Solubility in buffers or solutions, LC-MS/MS. The conditions noted are these: for Solubility (mg/ml): 37° C., 24 hrs. The class given is physicochemical. As to the method: The method for measuring the solubilities of the formulations is briefly described. The test formulation was added into indicated buffers or solutions (ddH2O or 0.9% saline, pH 7.4) to the final concentration of 3 mg/mL, followed by sonicating for 30 mins. Next, the mixture was put into 37° C. water bath for 24 hrs. The mixture was mixed well by vortex and 1 mL of mixture was transferred into the 1.5 mL eppendorf tube, followed by centrifuging at 20817 xg for 30 mins. 10 μL of the supernatant was collected, and the concentration of the collected supernatant was determined by LC-MS/MS.

The conditions of data set [3]: indicates poor aqueous solubility but good membrane permeability; cited from earlier work.
The nature of data set [4]: Oral bioavailability / pharmacokinetics in Beagle dogs. The conditions noted are these: dog, plasma, pH 7.4, IV bolus, 40 to 50 mg, vehicle 0.1M NaHCO3 pH7.4, read-out: AUC (area under the curve) of IV bolus. The class given is in vivo.
Protocol: Briefly, three healthy, research Beagle dogs, aged 4˜10 years and body weight 9˜12 kg were used. The pharmacokinetics experiments have intravenous bolus (IV bolus) and oral groups.
For the IV bolus and oral groups, the dogs received the drugs after fasting for 4 hours, and the blood samples of the dogs were taken before administration. The blood samples were collected at pre-assigned times (10 min, 1 hr, 2 hr, 4 hr, 5 hr, 7 hr and 24 hr) after administration. The concentrations of the drug in plasma were determined with validated high performance liquid chromatography.
The plasma concentration data were analyzed and modeled by the non-compartmental analysis to obtain pharmacokinetics parameters.

`CCOC(=O)CCNC(=O)c1ccc(N[C@H](c2ccc(-c3nnc(-c4ccccc4)o3)cc2)C(C)C)cc1` [ALP001E]: the In vitro dissolution in data set [1] (0 min) is 0.00%; in data set [1] (5 min), 4.40%; in data set [1] (10 min), 3.69%; in data set [1] (15 min), 4.73%; in data set [1] (20 min) it was 2.87%; in data set [1] (30 min), 1.18%. The In vitro dissolution in data set [1] (45 min) was found to be 1.26%; in data set [1] (60 min), 2.11%; in data set [1] (90 min), 2.77%; in data set [1] (120 min), 13.04%. For the same compound, the “Solubility (mg/ml)” value in data set [2] (H2O (pH 7.0)) and in data set [2] (Saline (pH 7.4)) was “<LOQ” throughout. In addition, the concentration in solution in data set [2] (USP pH 6.8 buffer, aqueous buffer, thermodynamic from solid, USP pH 6.8, 37° C.) (solubility at 24 h) came to 0.44 µg/mL (≈ 0.858 µM). In addition, in data set [3], the “Biopharmaceutical Classification System (BCS) class” value was “Class II”.
For the compound `CC(C)[C@H](Nc1ccc(C(=O)NCCC(=O)O)cc1)c1ccc(-c2nnc(-c3ccccc3)o2)cc1` [ALP001], the AUC in data set [4] amounted to 2180 ng·h/mL.
